Holding throughout (experiment): minimal inhibitory concentration, agar dilution method
Holding throughout (type): cell-based

Assay [1] relates to Pseudomonas aeruginosa 104. An excerpt:
(§1) When determined according to the agar dilution method, the penicillins (I) afford the minimal inhibitory concentrations against test microorganisms as shown in Table 2.

Assay [2] deals with Escherichia coli NIHJ.
Text: as §1

The test system of assay [3] is Staphylococcus aureus 209P.
Text: as §1

Assay [4] deals with Proteus miravilis GN2425.
Assay [5] relates to Proteus vulgaris HV19.

Converted amounts (≈) assume the structure as drawn.

As for `CC1(C)S[C@@H]2[C@H](NC(=O)[C@H](NC(=O)c3nnc4ccccc4c3O)c3ccc(O)cc3)C(=O)N2[C@H]1C(=O)O` [Example 8, D-α-(4-hydroxycinnoline-3-carboxamido)-p-hydroxybenzylpenicillin], the MIC in assay [1] was determined as 12.5 µg/mL (≈ 23.3 µM); in assay [2] it was 12.5 µg/mL (≈ 23.3 µM); in assay [3], 0.78 µg/mL (≈ 1.45 µM); in assay [4] it was 12.5 µg/mL (≈ 23.3 µM).
On to `CC1(C)S[C@@H]2[C@H](NC(=O)[C@H](NC(=O)c3cnc4ccncc4c3O)c3ccc(O)cc3)C(=O)N2[C@H]1C(=O)O` [Example 29], for which the MIC in assay [1] is 6.25 µg/mL (≈ 11.6 µM); in assay [2], 12.5 µg/mL (≈ 23.3 µM); in assay [3] it was 0.78 µg/mL (≈ 1.45 µM); in assay [5] it was 0.2 µg/mL (≈ 0.372 µM); in assay [4] it was 12.5 µg/mL (≈ 23.3 µM).
As for `CCOC(=O)Oc1ccc([C@@H](NC(=O)c2cnc3c(OC)nc(OC)nc3c2O)C(=O)N[C@@H]2C(=O)N3[C@@H]2SC(C)(C)[C@@H]3C(=O)O)cc1` [Example 36], the minimum inhibitory concentration (MIC) in assay [1] turned out to be 3.13 µg/mL (≈ 4.67 µM); in assay [2], 3.13 µg/mL (≈ 4.67 µM); in assay [3], 0.78 µg/mL (≈ 1.16 µM); in assay [5] it was 0.05 µg/mL (≈ 0.0746 µM); in assay [4], 3.13 µg/mL (≈ 4.67 µM).
On to `Cc1ccc2c(O)c(C(=O)N[C@@H](C(=O)N[C@@H]3C(=O)N4[C@@H]3SC(C)(C)[C@@H]4C(=O)O)c3ccc(O)cc3)cnc2n1` [Example 7, D-α-(4-hydroxy-7-methyl-1,8-naphthyridine-3-carboxamido)-p-hydroxybenzylpenicillin], for which the minimal inhibitory concentration (MIC) in assay [1] came out at 1.56 µg/mL (≈ 2.83 µM); in assay [2], 1.56 µg/mL (≈ 2.83 µM); in assay [3], 0.78 µg/mL (≈ 1.41 µM); in assay [5], 0.05 µg/mL (≈ 0.0906 µM); in assay [4], 3.13 µg/mL (≈ 5.67 µM).
With `CC1(C)S[C@@H]2[C@H](NC(=O)C(NC(=O)c3cnc4cccnc4c3S)c3cc(Cl)c(O)c(Cl)c3)C(=O)N2[C@H]1C(=O)O` (stereo partly drawn) [Example 40], the minimum inhibitory concentration (MIC) in assay [1] stood at 6.25 µg/mL (≈ 10 µM); in assay [2], 12.5 µg/mL (≈ 20.1 µM); in assay [3], 1.56 µg/mL (≈ 2.51 µM); in assay [5], 0.2 µg/mL (≈ 0.321 µM); in assay [4] it was 6.25 µg/mL (≈ 10 µM).
For `CC1(C)S[C@@H]2[C@H](NC(=O)C(NC(=O)c3cnc4cccnc4c3O)c3ccc(O)cc3)C(=O)N2[C@H]1C(=O)O` (mixture of isomers) [Example 2, DL-α-(4-hydroxy-1,5-naphthyridine-3-carboxamido)-p-hydroxybenzylpenicillin], the values for the MIC in assay [2], in assay [5] and in assay [4] were 3.13 µg/mL, 0.025 µg/mL and 3.13 µg/mL, respectively.
Regarding `CC1(C)S[C@@H]2[C@H](NC(=O)C(C(=O)O)c3ccccc3)C(=O)N2[C@H]1C(=O)O` (stereo partly drawn) [Carbenicillin, reference compound], the MIC in assay [1] is 50 to 100 µg/mL (≈ 132 to 264 µM); in assay [2], 12.5 µg/mL (≈ 33 µM); in assay [3], 0.78 µg/mL (≈ 2.06 µM); in assay [4], 0.78 µg/mL (≈ 2.06 µM).
Consider `CC1(C)S[C@@H]2[C@H](NC(=O)[C@H](NC(=O)c3cnc4ccccc4c3O)c3ccc(O)c(Cl)c3)C(=O)N2[C@H]1C(=O)O` [Example 14], for which the MIC in assay [1] stood at 6.25 µg/mL (≈ 10.9 µM); in assay [2], 6.25 µg/mL (≈ 10.9 µM); in assay [3], 0.78 µg/mL (≈ 1.37 µM); in assay [4] it was 6.25 µg/mL (≈ 10.9 µM).
For `CCOC(=O)Oc1ccc([C@@H](NC(=O)c2cnc3cc(Cl)ccc3c2O)C(=O)N[C@@H]2C(=O)N3[C@@H]2SC(C)(C)[C@@H]3C(=O)O)cc1` [Example 10], the results for the minimal inhibitory concentration (MIC) in assay [3] and in assay [4] were 0.39 µg/mL (≈ 0.606 µM) and 0.78 µg/mL (≈ 1.21 µM), respectively.
With `CC1(C)S[C@@H]2[C@H](NC(=O)[C@H](NC(=O)c3cnc4cc(C(F)(F)F)ccc4c3O)c3ccc(O)cc3)C(=O)N2[C@H]1C(=O)O` [Example 11], the MIC is 12.5 µg/mL (≈ 20.7 µM) in assay [1], 12.5 µg/mL (≈ 20.7 µM) in assay [2] and 3.13 µg/mL (≈ 5.18 µM) in assay [4].
Consider `CCOC(=O)Oc1ccc([C@@H](NC(=O)c2cnc3cc([N+](=O)[O-])ccc3c2O)C(=O)N[C@@H]2C(=O)N3[C@@H]2SC(C)(C)[C@@H]3C(=O)O)cc1` [Example 20], for which the MIC is 12.5 µg/mL (≈ 19.1 µM) in assay [1], 12.5 µg/mL (≈ 19.1 µM) in assay [2], 0.78 µg/mL (≈ 1.19 µM) in assay [3] and 6.5 µg/mL (≈ 9.94 µM) in assay [4].
For `CCOC(=O)Oc1ccc([C@@H](NC(=O)c2cnc3cc4c(cc3c2S)OCO4)C(=O)N[C@@H]2C(=O)N3[C@@H]2SC(C)(C)[C@@H]3C(=O)O)cc1` [Example 38], the minimum inhibitory concentration (MIC) came out at 3.13 µg/mL (≈ 4.68 µM) in assay [1], 0.39 µg/mL (≈ 0.583 µM) in assay [3], 0.2 µg/mL (≈ 0.299 µM) in assay [5] and 3.13 µg/mL (≈ 4.68 µM) in assay [4].

Usually MIC stands for the lowest concentration found to suppress growth.

The record behind these values is patent US3954733A, “Naphthyridine-3-carboxamido-benzylpenicillins and salts thereof” (Sumitomo Chemical Company, Limited, priority 1973, dated 1976).
